According to the supplement of paper PMC10307832:

How the values were obtained:
Assay in all cases: relative viability (nuclei count vs DMSO), 5 days (fraction); higher = more cells survive
Afatinib + Pictilisib = compound: CN(C)C/C=C/C(=O)Nc1cc2c(Nc3ccc(F)c(Cl)c3)ncnc2cc1O[C@H]1CCOC1 [Afatinib] + CS(=O)(=O)N1CCN(Cc2cc3nc(-c4cccc5[nH]ncc45)nc(N4CCOCC4)c3s2)CC1 [Pictilisib] (partner 1 µM)
In short: (§1)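 Five library-drug doses in √10 steps were combined with a fixed anchor-drug dose, or a single drug was given alone, by pin tool to lung cancer cell lines in 1536-well plates the day after seeding. Nuclei were stained and counted after 5 days. Relative viability is the nuclei count in treated wells over that in vehicle wells, taken as the median of duplicate plates.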

Afatinib + Palbociclib = compound: CN(C)C/C=C/C(=O)Nc1cc2c(Nc3ccc(F)c(Cl)c3)ncnc2cc1O[C@H]1CCOC1 [Afatinib] + CC(=O)c1c(C)c2cnc(Nc3ccc(N4CCNCC4)cn3)nc2n(C2CCCC2)c1=O [Palbociclib] (partner 0.5 µM)
In short: as §1

Afatinib + Decitabine = compound: CN(C)C/C=C/C(=O)Nc1cc2c(Nc3ccc(F)c(Cl)c3)ncnc2cc1O[C@H]1CCOC1 [Afatinib] + Nc1ncn([C@H]2C[C@H](O)[C@@H](CO)O2)c(=O)n1 [Decitabine] (partner 2 µM)
In short: as §1

Afatinib + Phenformin = compound: CN(C)C/C=C/C(=O)Nc1cc2c(Nc3ccc(F)c(Cl)c3)ncnc2cc1O[C@H]1CCOC1 [Afatinib] + N=C(N)NC(=N)NCCc1ccccc1 [Phenformin] (partner 250 µM)
In short: as §1

Row | Cell Line | relative viability (Afatinib + Pictilisib; first compound 0.005 µM) | relative viability (Afatinib + Pictilisib; first compound 0.01581 µM) | relative viability (Afatinib + Pictilisib; first compound 0.05 µM) | relative viability (Afatinib + Pictilisib; first compound 0.1581 µM) | relative viability (Afatinib + Pictilisib; first compound 0.5 µM) | relative viability (Afatinib + Palbociclib; first compound 0.005 µM) | relative viability (Afatinib + Palbociclib; first compound 0.01581 µM) | relative viability (Afatinib + Palbociclib; first compound 0.05 µM) | relative viability (Afatinib + Palbociclib; first compound 0.1581 µM) | relative viability (Afatinib + Palbociclib; first compound 0.5 µM) | relative viability (Afatinib + Decitabine; first compound 0.005 µM) | relative viability (Afatinib + Decitabine; first compound 0.01581 µM) | relative viability (Afatinib + Decitabine; first compound 0.05 µM) | relative viability (Afatinib + Decitabine; first compound 0.1581 µM) | relative viability (Afatinib + Decitabine; first compound 0.5 µM) | relative viability (Afatinib + Phenformin; first compound 0.005 µM) | relative viability (Afatinib + Phenformin; first compound 0.01581 µM) | relative viability (Afatinib + Phenformin; first compound 0.05 µM) | relative viability (Afatinib + Phenformin; first compound 0.1581 µM) | relative viability (Afatinib + Phenformin; first compound 0.5 µM)
1 | SK-MES-1 | 0.273 | 0.238 | 0.217 | 0.213 | 0.208 | 0.305 | 0.289 | 0.306 | 0.257 | 0.257 | 0.27 | 0.322 | 0.309 | 0.312 | 0.316 | 0.547 | 0.64 | 0.389 | 0.332 | 0.369
2 | NCI-H1666 | 0.329 | 0.252 | 0.344 | – | 0.345 | 0.656 | 0.617 | 0.645 | 0.673 | 0.688 | 0.702 | 0.67 | 0.642 | 0.562 | 0.657 | 0.572 | 0.553 | 0.607 | 0.555 | 0.567
3 | NCI-H1355 | 0.39 | 0.467 | 0.482 | 0.36 | 0.21 | 0.397 | 0.338 | 0.351 | 0.274 | 0.315 | 0.377 | 0.332 | 0.341 | 0.356 | 0.332 | 0.484 | 0.491 | 0.482 | 0.424 | 0.421
4 | HCC-827 | 0.295 | 0.324 | 0.312 | 0.37 | 0.226 | 0.158 | 0.139 | 0.164 | 0.171 | 0.136 | 0.162 | 0.155 | 0.178 | 0.174 | 0.161 | 0.137 | 0.119 | 0.152 | 0.119 | 0.137
5 | HARA | 0.429 | 0.331 | 0.16 | 0.206 | 0.195 | 0.188 | 0.242 | 0.204 | 0.189 | 0.197 | 0.548 | – | 0.413 | 0.325 | 0.349 | 0.391 | 0.27 | 0.327 | 0.376 | 0.375
6 | HCC-366 | 0.143 | 0.123 | 0.224 | 0.134 | 0.191 | 0.469 | 0.361 | 0.443 | 0.37 | 0.456 | 0.293 | 0.407 | 0.383 | 0.324 | 0.34 | 0.588 | 0.61 | 0.611 | 0.632 | 0.595
7 | NCI-H322M | 0.441 | 0.396 | 0.351 | 0.327 | 0.279 | 0.467 | 0.434 | 0.394 | 0.358 | 0.378 | 0.637 | 0.509 | 0.55 | 0.502 | 0.479 | 0.636 | 0.433 | 0.535 | 0.463 | 0.446
8 | NCI-H2347 | 0.737 | 0.665 | 0.672 | 0.596 | 0.841 | 0.415 | 0.446 | 0.445 | 0.418 | 0.432 | 0.602 | 0.654 | 0.626 | 0.592 | 0.592 | 0.357 | 0.456 | 0.31 | 0.381 | 0.415
9 | NCI-H1975 | 0.293 | 0.185 | 0.164 | 0.17 | 0.0947 | 0.72 | 0.469 | 0.472 | 0.253 | 0.21 | 0.395 | 0.283 | 0.391 | 0.264 | 0.373 | 0.444 | 0.413 | 0.373 | 0.223 | 0.166
10 | UMC-11 | 0.981 | 0.841 | 0.787 | 0.725 | 0.84 | 0.355 | 0.325 | 0.283 | 0.308 | 0.325 | 0.664 | 0.602 | 0.584 | 0.554 | 0.63 | 0.358 | 0.33 | 0.324 | 0.314 | 0.303
11 | ABC-1 | 0.816 | 0.52 | 0.679 | 0.578 | 0.762 | 0.559 | – | 0.576 | 0.572 | 0.561 | 1.09 | – | 1.26 | 0.928 | 1.05 | 0.245 | 0.241 | 0.264 | 0.239 | 0.325
12 | A-427 | 0.729 | 0.684 | 0.587 | 0.774 | 0.658 | 0.523 | 0.526 | 0.537 | 0.483 | 0.505 | 0.556 | 0.594 | 0.551 | 0.502 | 0.511 | 0.33 | 0.248 | 0.371 | 0.267 | 0.32
13 | LCLC-97TM1 | 0.27 | 0.182 | 0.182 | 0.144 | 0.15 | 0.222 | 0.232 | 0.23 | 0.239 | 0.201 | 0.262 | 0.17 | 0.234 | 0.273 | 0.255 | 0.439 | 0.398 | 0.438 | 0.404 | 0.391
14 | HCC-15 | 0.806 | 0.72 | 0.647 | 0.714 | 0.66 | 0.743 | 0.753 | 0.702 | 0.755 | 0.746 | 0.75 | 0.622 | 0.625 | 0.594 | 0.645 | 0.487 | 0.487 | 0.488 | 0.47 | 0.517
15 | NCI-H647 | 0.407 | – | 0.457 | 0.459 | 0.453 | 0.37 | 0.335 | 0.385 | 0.368 | 0.312 | 0.459 | 0.499 | 0.425 | 0.315 | 0.419 | 0.664 | 0.481 | 0.57 | 0.692 | 0.445
16 | SW 1573 | 0.547 | 0.406 | 0.585 | 0.484 | 0.484 | 0.451 | 0.364 | 0.404 | 0.306 | 0.362 | 0.434 | 0.422 | 0.542 | 0.497 | 0.528 | 0.387 | 0.376 | 0.353 | 0.299 | 0.393
17 | NCI-H1651 | 0.58 | 0.533 | 0.546 | 0.553 | 0.449 | 0.561 | 0.508 | 0.501 | 0.495 | 0.459 | 0.558 | 0.57 | 0.6 | 0.576 | 0.585 | 0.368 | 0.333 | 0.288 | 0.329 | 0.332
